Counter-ions that a name gives are not always drawn.
target: T1, human Nav1.8 (hNav1.8) ion channel (Homo sapiens, UniProt Q9Y5Y9); assay: Inhibition of human Nav1.8 stably expressed in SH-SY-5Y cells (membrane potential dye fluorescence assay); assay type: cell-based; details: SH-SY-5Y hNav1.8 cells; FLIPR membrane potential dye; 10 μM pyrethroid, 250 nM TTX; test concentration range 100 μM-0.05 μM; read-out: hNav1.8 IC50
T1 construct: expressed in transfected cells
Method: Inhibition of Human Nav1.8 stably expressed in SH-SY-5Y Cells
A SH-SY-5Y neuroblastoma cell line stably expressing the human Nav1.8 (hNav1.8) ion channel was constructed. This cell line has been used to develop a medium to high throughput assay for determining the ability of test compounds to inhibit membrane depolarisation mediated via the hNav1.8 channel.
SH-SY-5Y hNav1.8 are grown in adherent monolayer culture using 50:50 Ham's F-12/EMEM tissue culture medium supplemented with 15% (v/v) foetal bovine serum; 2 mM L-glutamine, 1% NEAR and 600 μg·ml^−1 Geneticin sulphate. Cells are removed from the tissue culture flask using trypsin/EDTA and re-plated into black walled, clear bottom 96-well assay plates at 50,000 cells·well^−1 24 hours prior to assay.
On the day of assay the cell assay plates are washed to remove cell culture medium using a sodium free assay buffer (145 mM tetramethyl ammonium chloride; 2 mM calcium chloride; 0.8 mM magnesium chloride hexahydrate; 10 mM HEPES; 10 mM glucose; 5 mM potassium chloride, pH 7.4). Fluorescent membrane potential dye solution (FLIPR™ membrane potential dye, Molecular Devices Corporation), containing 10 μM of a pyrethroid to prevent channel inactivation and 250 nM tetrodotoxin (TTX) to reduce interference from TTX-sensitive sodium channels present in the cell line. Test compound, initially dissolved in dimethyl sulfoxide but further diluted in sodium free buffer, is added to achieve the final test concentration range of 100 μM-0.05 μM.
Cell plates are incubated for 30 minutes at room temperature to allow equilibration of dye and test compound. Plates are then transferred to a fluorescence plate reader for fluorescence measurement using an excitation wavelength of 530 nm whilst measuring fluorescence emission at 565 nm. Baseline fluorescence levels are first determined before the addition of a sodium containing buffer (220 mM sodium chloride; 2 mM calcium chloride; 0.8 mM magnesium chloride hexahydrate; 10 mM HEPES; 10 mM glucose; 5 mM potassium chloride. pH 7.4) to cause membrane depolarisation in those cells where channel block has not been effected (final sodium concentration=72.5 mM). Membrane depolarisation is registered by an increase in fluorescence emission at 565 nm.
The change in fluorescence seen in each test well upon the addition of sodium containing buffer is calculated relative to the baseline fluorescence for that well. This figure is then used for calculating the IC50 for each test compound.

T1 sequence (Q9Y5Y9 whole entry): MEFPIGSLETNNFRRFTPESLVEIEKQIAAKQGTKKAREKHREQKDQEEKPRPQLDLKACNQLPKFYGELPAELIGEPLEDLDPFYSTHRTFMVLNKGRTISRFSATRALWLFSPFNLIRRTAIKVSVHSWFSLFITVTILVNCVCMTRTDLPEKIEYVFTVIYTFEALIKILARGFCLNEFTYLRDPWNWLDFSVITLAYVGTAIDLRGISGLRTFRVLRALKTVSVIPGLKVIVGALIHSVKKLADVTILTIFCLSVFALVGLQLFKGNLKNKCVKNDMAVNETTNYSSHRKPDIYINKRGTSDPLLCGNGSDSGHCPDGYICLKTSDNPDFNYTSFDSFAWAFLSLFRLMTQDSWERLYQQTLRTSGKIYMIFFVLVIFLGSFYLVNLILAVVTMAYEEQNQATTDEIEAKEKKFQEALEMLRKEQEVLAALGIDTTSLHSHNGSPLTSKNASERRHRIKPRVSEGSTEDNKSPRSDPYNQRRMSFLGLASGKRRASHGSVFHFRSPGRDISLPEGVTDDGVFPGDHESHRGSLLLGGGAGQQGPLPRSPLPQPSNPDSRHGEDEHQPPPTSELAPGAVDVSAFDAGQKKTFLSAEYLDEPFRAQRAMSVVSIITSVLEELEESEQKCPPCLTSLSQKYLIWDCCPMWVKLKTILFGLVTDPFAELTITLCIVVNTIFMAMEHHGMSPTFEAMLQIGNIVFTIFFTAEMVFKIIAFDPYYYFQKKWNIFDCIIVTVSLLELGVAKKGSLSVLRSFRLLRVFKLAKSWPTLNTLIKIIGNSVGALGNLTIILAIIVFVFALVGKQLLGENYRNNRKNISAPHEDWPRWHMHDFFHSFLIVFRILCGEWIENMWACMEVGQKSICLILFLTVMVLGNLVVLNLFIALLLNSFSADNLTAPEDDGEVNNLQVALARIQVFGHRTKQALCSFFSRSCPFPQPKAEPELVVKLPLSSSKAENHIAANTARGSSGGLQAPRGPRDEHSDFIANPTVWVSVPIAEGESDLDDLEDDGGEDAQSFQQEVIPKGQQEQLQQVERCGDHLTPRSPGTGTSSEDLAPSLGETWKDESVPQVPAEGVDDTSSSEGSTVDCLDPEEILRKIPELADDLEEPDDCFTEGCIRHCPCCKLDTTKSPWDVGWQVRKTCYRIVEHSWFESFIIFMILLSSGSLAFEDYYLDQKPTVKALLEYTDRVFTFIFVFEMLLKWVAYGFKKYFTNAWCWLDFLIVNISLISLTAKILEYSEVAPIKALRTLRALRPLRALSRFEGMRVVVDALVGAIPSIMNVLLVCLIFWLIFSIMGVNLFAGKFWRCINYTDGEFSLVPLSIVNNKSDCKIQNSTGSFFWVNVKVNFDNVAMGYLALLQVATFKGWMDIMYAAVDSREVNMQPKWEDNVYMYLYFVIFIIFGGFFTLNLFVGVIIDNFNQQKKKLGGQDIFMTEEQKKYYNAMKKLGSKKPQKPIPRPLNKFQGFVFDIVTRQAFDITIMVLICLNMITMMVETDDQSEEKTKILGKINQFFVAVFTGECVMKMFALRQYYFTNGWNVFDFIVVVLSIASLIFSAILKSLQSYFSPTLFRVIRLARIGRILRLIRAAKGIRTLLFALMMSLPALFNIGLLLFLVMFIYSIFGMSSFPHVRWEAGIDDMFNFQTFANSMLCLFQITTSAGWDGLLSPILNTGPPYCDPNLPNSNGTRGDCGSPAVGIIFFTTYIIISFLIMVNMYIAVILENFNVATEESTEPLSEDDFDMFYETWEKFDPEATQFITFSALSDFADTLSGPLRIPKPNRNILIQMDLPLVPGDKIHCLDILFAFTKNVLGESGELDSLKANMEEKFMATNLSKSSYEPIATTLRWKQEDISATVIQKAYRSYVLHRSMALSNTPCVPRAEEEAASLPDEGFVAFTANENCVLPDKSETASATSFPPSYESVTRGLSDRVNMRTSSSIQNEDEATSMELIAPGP

Structure (SMILES) | IC50 [nM]
O=C(c1ccc(C(F)(F)F)cc1)N1CC2CC1CN2C1CCc2ccccc2C1 (centres unmarked) [Example 137, [5-(1,2,3,4-Tetrahydro-naphthalen-2-yl)-2,5-diaza-bicyclo[2.2.1]hept-2-yl]-(4-trifluoromethyl-phenyl)-methanone] | 23200
O=C(NCc1ccc(Oc2ccccc2)cc1)N1CC2CC1CN2C1Cc2ccc(F)cc2C1 (centres unmarked) [Example 145, 5-(5-Fluoro-indan-2-yl)-2,5-diaza-bicyclo[2.2.1]heptane-2-carboxylic acid 4-phenoxy-benzylamide] | 1440
CC(c1ccccc1Cl)N1CC2CC1CN2C(=O)Nc1ccc(Oc2ccccc2)cc1 (single isomer, unassigned) [Example 12, 5-[1-(2-Chloro-phenyl)-ethyl]-2,5-diaza-bicyclo[2.2.1]heptane-2-carboxylic acid (4-phenoxy-phenyl)-amide] | 360
CC(c1ccc(F)cc1)N1CC2CC1CN2C(=O)Nc1ccc(C(F)(F)F)cc1 (centres unmarked) [Example 46, 5-[1-(4-Fluoro-phenyl)-ethyl]-2,5-diaza-bicyclo[2.2.1]heptane-2-carboxylic acid (4-trifluoromethyl-phenyl)-amide] | 1310
Cc1cc(F)ccc1C(C)N1CC2CC1CN2C(=O)Nc1ccc(Oc2ccccc2)cc1 (centres unmarked) [Example 64, 5-[1-(4-Fluoro-2-methyl-phenyl)-ethyl]-2,5-diaza-bicyclo[2.2.1]heptane-2-carboxylic acid (4-phenoxy-phenyl)-amide] | 270
O=C(Nc1ccc(Oc2cccc(F)c2)cc1)N1CC2CC1CN2C1Cc2ccccc2C1 (centres unmarked) [Example 114, 5-Indan-2-yl-2,5-diaza-bicyclo[2.2.1]heptane-2-carboxylic acid [4-(3-fluoro-phenoxy)-phenyl]-amide] | 80
COc1ccccc1CC(C)N1CC2CC1CN2C(=O)Nc1ccc(C(F)(F)F)cc1 (centres unmarked) [Example 86, 5-[2-(2-Methoxy-phenyl)-1-methyl-ethyl]-2,5-diaza-bicyclo[2.2.1]heptane-2-carboxylic acid (4-trifluoromethyl-phenyl)-amide] | 670
Cc1ccc(Oc2ccc(NC(=O)N3CC4CC3CN4C(C)c3ccccc3Cl)cc2)cc1 (centres unmarked) [Example 140, 5-[1-(2-Chloro-phenyl)-ethyl]-2,5-diaza-bicyclo[2.2.1]heptane-2-carboxylic acid (4-p-tolyloxy-phenyl)-amide] | 1230
CC(c1ccccc1Cl)N1CC2CC1CN2C(=O)Nc1ccc(Oc2ccc(Cl)cc2)cc1 (centres unmarked) [Example 129, 5-[1-(2-Chloro-phenyl)-ethyl]-2,5-diaza-bicyclo[2.2.1]heptane-2-carboxylic acid [4-(4-chloro-phenoxy)-phenyl]-amide] | 3800
O=C(Nc1ccc(Oc2ccc(F)cc2)cc1)N1CC2CC1CN2C1CCc2ccccc2C1 (centres unmarked) [Example 101, 5-(1,2,3,4-Tetrahydro-naphthalen-2-yl)-2,5-diaza-bicyclo[2.2.1]heptane-2-carboxylic acid [4-(4-fluoro-phenoxy)-phenyl]-amide methanesulfonate salt] | 340
Cc1ccccc1C(C)N1CC2CC1CN2C(=O)Nc1ccc(OC2CCN(Cc3ccccc3)CC2)cc1 (centres unmarked) [Example 40, 5-(1-o-Tolyl-ethyl)-2,5-diaza-bicyclo[2.2.1]heptane-2-carboxylic acid [4-(1-benzyl-piperidin-4-yloxy)-phenyl]-amide] | 2010
Cc1ccccc1C(C)N1CC2CC1CN2C(=O)Nc1ccc(OCCN2CCCC2)cc1 (centres unmarked) [Example 41, 5-(1-o-Tolyl-ethyl)-2,5-diaza-bicyclo[2.2.1]heptane-2-carboxylic acid [4-(2-pyrrolidin-1-yl-ethoxy)-phenyl]-amide] | ≥ 30000
CCCCOc1ccc(NC(=O)N2CC3CC2CN3C(C)c2ccccc2C)cc1 (centres unmarked) [Example 5, 5-(1-o-Tolyl-ethyl)-2,5-diaza-bicyclo[2.2.1]heptane-2-carboxylic acid (4-butoxy-phenyl)-amide] | 570
CC(c1ccccc1Cl)N1CC2CC1CN2C(=O)c1cc2ccccc2[nH]1 (centres unmarked) [Example 149, {5-[1-(2-Chloro-phenyl)-ethyl]-2,5-diaza-bicyclo[2.2.1]hept-2-yl}-(1H-indol-2-yl)-methanone] | 5840
Cc1ccccc1C(C)N1CC2CC1CN2C(=O)Nc1ccc(OCCc2scnc2C)cc1 (centres unmarked) [Example 42, 5-(1-o-Tolyl-ethyl)-2,5-diaza-bicyclo[2.2.1]heptane-2-carboxylic acid {4-[2-(4-methyl-thiazol-5-yl)-ethoxy]-phenyl}-amide] | 2100
Cc1ccccc1C(C)N1CC2CC1CN2C(=O)Nc1ccc(-c2ccccc2)cc1 (centres unmarked) [Example 39, 5-(1-o-Tolyl-ethyl)-2,5-diaza-bicyclo[2.2.1]heptane-2-carboxylic acid biphenyl-4-ylamide] | 1060
O=C(Nc1ccc(Oc2ccc(F)cc2)cc1)N1CC2CC1CN2C1CCc2cc(F)ccc21 (centres unmarked) [Example 92, 5-(5-Fluoro-indan-1-yl)-2,5-diaza-bicyclo[2.2.1]heptane-2-carboxylic acid [4-(4-fluoro-phenoxy)-phenyl]-amide] | 360
CC(c1ccc(Cl)cc1Cl)N1CC2CC1CN2C(=O)Nc1ccc(Oc2ccc(Cl)cc2)cc1 (centres unmarked) [Example 122, 5-[1-(2,4-Dichloro-phenyl)-ethyl]-2,5-diaza-bicyclo[2.2.1]heptane-2-carboxylic acid [4-(4-chloro-phenoxy)-phenyl]-amide] | 19200
CC(c1ccc(F)cc1)N1CC2CC1CN2C(=O)Nc1ccc(Oc2ccccc2)cc1 (centres unmarked) [Example 48, 5-[1-(4-Fluoro-phenyl)-ethyl]-2,5-diaza-bicyclo[2.2.1]heptane-2-carboxylic acid (4-phenoxy-phenyl)-amide] | 420
Cc1ccccc1C(C)N1CC2CC1CN2C(=O)Nc1ccc(OCc2ccccc2)cc1 (centres unmarked) [Example 31, 5-(1-o-Tolyl-ethyl)-2,5-diaza-bicyclo[2.2.1]heptane-2-carboxylic acid (4-benzyloxy-phenyl)-amide] | 600
Cc1ccc(Oc2ccc(NC(=O)N3CC4CC3CN4C(C)c3ccc(Cl)cc3Cl)cc2)cc1 (centres unmarked) [Example 127, 5-[1-(2,4-Dichloro-phenyl)-ethyl]-2,5-diaza-bicyclo[2.2.1]heptane-2-carboxylic acid (4-p-tolyloxy-phenyl)-amide] | 22100
Cc1ccc(Oc2ccc(NC(=O)N3CC4CC3CN4C(C)c3ccccc3Cl)cc2)cc1 (centres unmarked) [Example 139, 5-[1-(2-Chloro-phenyl)-ethyl]-2,5-diaza-bicyclo[2.2.1]heptane-2-carboxylic acid (4-p-tolyloxy-phenyl)-amide] | 1160
CC(c1ccc(F)cc1)N1CC2CC1CN2C(=O)Nc1cccc(C(F)(F)F)c1 (centres unmarked) [Example 50, 5-[1-(4-Fluoro-phenyl)-ethyl]-2,5-diaza-bicyclo[2.2.1]heptane-2-carboxylic acid (3-trifluoromethyl-phenyl)-amide] | 2620
CC(Cc1ccccc1F)N1CC2CC1CN2C(=O)Nc1ccc(C(F)(F)F)cc1 (centres unmarked) [Example 79, 5-[2-(2-Fluoro-phenyl)-1-methyl-ethyl]-2,5-diaza-bicyclo[2.2.1]heptane-2-carboxylic acid (4-trifluoromethyl-phenyl)-amide] | 780
O=C(Nc1ccc(C(F)(F)F)cc1)N1CC2CC1CN2C1CCc2ccccc2C1 (centres unmarked) [Example 77, 5-(1,2,3,4-Tetrahydro-naphthalen-2-yl)-2,5-diaza-bicyclo[2.2.1]heptane-2-carboxylic acid (4-trifluoromethyl-phenyl)-amide] | 590
Cc1ccccc1C(C)N1CC2CC1CN2C(=O)Nc1ccc(Oc2ccccc2)cc1 (centres unmarked) [Example 30, 5-(1-o-Tolyl-ethyl)-2,5-diaza-bicyclo[2.2.1]heptane-2-carboxylic acid (4-phenoxy-phenyl)-amide] | 320
CC(c1ccccn1)N1CC2CC1CN2C(=O)c1ccc(Oc2ccc(F)cc2)cc1 (centres unmarked) [Example 181, [4-(4-Fluoro-phenoxy)-phenyl]-[5-(1-pyridin-2-yl-ethyl)-2,5-diaza-bicyclo[2.2.1]hept-2-yl]-methanone] | 9930

same assay, conditions: hNav1.8 IC50, SH-SY-5Y hNav1.8 cells; FLIPR membrane potential dye; 10 μM pyrethroid, 250 nM TTX; test concentration range 100 μM-0.05 μM

Structure (SMILES) | IC50 [nM]
Cc1ccccc1C(C)N1CC2CC1CN2C(=O)Nc1ccc(Oc2ccc(F)cc2)cc1 (centres unmarked) [Example 78, 5-(1-o-Tolyl-ethyl)-2,5-diaza-bicyclo[2.2.1]heptane-2-carboxylic acid [4-(4-fluoro-phenoxy)-phenyl]-amide fumarate salt] | 230
O=C(Cc1ccc(Oc2ccc(F)cc2)cc1)N1CC2CC1CN2C1CCc2ccccc2C1 (centres unmarked) [Example 142, 2-[4-(4-Fluoro-phenoxy)-phenyl]-1-[5-(1,2,3,4-tetrahydro-naphthalen-2-yl)-2,5-diaza-bicyclo[2.2.1]hept-2-yl]-ethanone] | 280

— patent publication US20100204224A1, “AZACYCLIC COMPOUNDS AS INHIBITORS OF SENSORY NEURONE SPECIFIC SODIUM CHANNELS” (priority 2005, published 2010)
